Earlier results in patent US20240307352A1, “SACUBITRIL VALSARTAN SODIUM SUSTAINED-RELEASE COMPOSITION, AND PREPARATION METHOD THEREFOR AND USE THEREOF” (SHANGHAI AURORA BIOTECHNOLOGY CO., LTD., priority 2021, published 2024).

System: patients with heart failure with reduced ejection fraction (HF-REF)
Settings: compared to enalapril-treated counterpart

octadecasodium hexa(4-{[(1S,3R)-1-([1,1′-biphenyl)-4-ylmethyl)-4-ethoxy-3-methyl-4-oxobutyl]amino}-4-oxobutyric acid) hexa(N-pentanoyl-N-{[2′-(1H-tetrazol-5-yl)biphenyl-4-yl]methyl}-L-valine)-hydrate (1/15) [LCZ696]
Reduction in death risk: 20% | Reduction in hospitalization risk: 21%
